From patent publication EP4273147A1, “SUBSTITUTED SPIROLACTAMS, SALTS THEREOF AND THEIR USE AS HERBICIDALLY ACTIVE SUBSTANCES” (Bayer Aktiengesellschaft, priority 2022, dated 2023)

Assays:
[1] = system: ECHCG; assay: Herbicidal pre-emergence action (Table A2); type: in vivo, Echinochloa crus-galli; conditions: visual grading after ca. 3 weeks
How it was run: (§1)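 Seeds covered with soil after sowing in sandy loam; every pot carried one monocotyledonous and one dicotyledonous weed species as a double sowing.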

[2] = system: POAAN; assay: Herbicidal pre-emergence action (Table A7); type: in vivo, Poa annua; conditions: visual grading after ca. 3 weeks
How it was run: as §1

[3] = system: ABUTH; assay: Herbicidal post-emergence action (Table B1); type: in vivo, Abutilon theophrasti; conditions: treated at one-leaf stage, rated visually after about 3 weeks vs untreated controls (100% = plants have died, 0% = like control plants)
Procedure: (§2) Seeds of mono- and dicotyledonous weed plants were placed in plastic pots in sandy loam soil (doubly sown with in each case one species of mono- or dicotyledonous weed plants per pot), covered with soil and cultivated in a greenhouse under controlled growth conditions. 2 to 3 weeks after sowing, the test plants were treated at the one-leaf stage. […] After the test plants had been kept in the greenhouse under optimum growth conditions for about 3 weeks, the activity of the preparations was rated visually in comparison to untreated controls. For example, 100% activity = the plants have died, 0% activity = like control plants.

[4] = system: LOLRI; assay: Herbicidal pre-emergence action (Table A3); type: in vivo, Lolium rigidum; conditions: visual grading after ca. 3 weeks
How it was run: as §1

[5] = system: MATIN; assay: Herbicidal pre-emergence action (Table A4); type: in vivo, Matricaria inodora; conditions: visual grading after ca. 3 weeks
How it was run: as §1

[6] = system: SETVI; assay: Herbicidal pre-emergence action (Table A5); type: in vivo, Setaria viridis; conditions: visual grading after ca. 3 weeks
How it was run: as §1

[7] = system: STEME; assay: Herbicidal pre-emergence action (Table A6); type: in vivo, Stellaria media; conditions: visual grading after ca. 3 weeks
How it was run: as §1

[8] = system: AMARE; assay: Herbicidal pre-emergence action (Table A8); type: in vivo, Amaranthus retroflexus; conditions: visual grading after ca. 3 weeks vs untreated controls (100% = plants have died off, 0% = as control plants)
Source text: (§3) Seeds of mono- and dicotyledonous weed plants were sown in plastic pots (double sowings with one species of mono- and one species of dicotyledonous weed plants per pot), in sandy loam, and covered with soil.

[9] = system: KCHSC; assay: Herbicidal pre-emergence action (Table A10); type: in vivo, Kochia scoparia; conditions: application rate 1280 g/ha; visual grading after ca. 3 weeks
How it was run: as §1

[10] = system: DIGSA; assay: Herbicidal pre-emergence action (Table A12); type: in vivo, Digitaria sanguinalis; conditions: visual grading after ca. 3 weeks
How it was run: as §1

[11] = system: ABUTH; assay: Herbicidal pre-emergence action (Table A1); type: in vivo, Abutilon theophrasti; conditions: application rate 1280 g/ha; visual grading after ca. 3 weeks vs untreated controls (100% = plants have died off, 0% = as control plants)
Source text: as §3

[12] = system: ALOMY; assay: Herbicidal pre-emergence action (Table A9); type: in vivo, Alopecurus myosuroides; conditions: visual grading after ca. 3 weeks
How it was run: as §1

[13] = system: VERPE; assay: Herbicidal pre-emergence action (Table A11); type: in vivo, Veronica persica; conditions: application rate 1280 g/ha; visual grading after ca. 3 weeks
How it was run: as §1

[14] = system: ECHCG; assay: Herbicidal post-emergence action (Table B3); type: in vivo, Echinochloa crus-galli; conditions: rated visually after about 3 weeks
How it was run: (§4)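 Greenhouse pot test in sandy loam; weeds sown, treated post-emergence at one-leaf stage 2–3 weeks after sowing. Activity rated visually about 3 weeks later versus untreated controls, 100% = plants dead, 0% = like controls.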

[15] = system: MATIN; assay: Herbicidal post-emergence action (Table B6); type: in vivo, Matricaria inodora; conditions: application rate 1280 g/ha; rated visually after about 3 weeks
Procedure: as §2

[16] = system: POAAN; assay: Herbicidal post-emergence action (Table B7); type: in vivo, Poa annua; conditions: application rate 1280 g/ha
How it was run: as §4

[17] = system: VERPE; assay: Herbicidal post-emergence action (Table B10); type: in vivo, Veronica persica; conditions: application rate 1280 g/ha
Procedure: as §2

[18] = system: SETVI; assay: Herbicidal post-emergence action (Table B8); type: in vivo, Setaria viridis; conditions: application rate 1280 g/ha
Procedure: as §2

[19] = system: AMARE; assay: Herbicidal post-emergence action (Table B11); type: in vivo, Amaranthus retroflexus; conditions: application rate 1280 g/ha
Procedure: as §2

| Structure (SMILES) | pre-emergence activity against ECHCG ([1]; application rate 1280 g/ha) [%] | pre-emergence activity against POAAN ([2]; application rate 320 g/ha) [%] | pre-emergence activity against LOLRI ([4]; application rate 1280 g/ha) [%] | pre-emergence activity against MATIN ([5]; application rate 1280 g/ha) [%] | pre-emergence activity against SETVI ([6]; application rate 1280 g/ha) [%] | pre-emergence activity against AMARE ([8]; application rate 1280 g/ha) [%] | pre-emergence activity against KCHSC [9] [%] | pre-emergence activity against DIGSA ([10]; application rate 1280 g/ha) [%] | pre-emergence activity against ECHCG ([1]; application rate 320 g/ha) [%] | pre-emergence activity against SETVI ([6]; application rate 320 g/ha) [%] | pre-emergence activity against STEME ([7]; application rate 320 g/ha) [%] | pre-emergence activity against VERPE [13] [%] | post-emergence activity against ABUTH ([3]; application rate 1280 g/ha) [%] | post-emergence activity against POAAN [16] [%] | pre-emergence activity against DIGSA ([10]; application rate 320 g/ha) [%] | other results |
| --- | --- | --- | --- | --- | --- | --- | --- | --- | --- | --- | --- | --- | --- | --- | --- | --- |
| COc1ccccc1CN1CCCC2(CCCN(Cc3ccccc3OC)C2=O)C1=O (racemic) [I-071] | 100 | 100 | – | – | – | – | – | – | – | – | – | – | – | – | – | post-emergence activity against ABUTH ([3]; application rate 320 g/ha): 90% |
| O=C1N(Cc2ccccc2)CCC12CCCN(Cc1cccc(F)c1F)C2=O (racemic) [I-084] | 100 | 100 | 100 | 90 | 100 | 90 | 90 | 100 | – | – | – | – | – | – | – | pre-emergence activity against STEME ([7]; application rate 1280 g/ha): 90% |
| O=C1N(Cc2ccccc2F)CCCC12CCCN(Cc1c(F)cccc1F)C2=O (racemic) [I-031] | – | 100 | – | – | – | – | – | – | 100 | 100 | 90 | 90 | 90 | 90 | – | pre-emergence activity against ABUTH [11]: 90%; pre-emergence activity against LOLRI ([4]; application rate 320 g/ha): 100%; pre-emergence activity against MATIN ([5]; application rate 320 g/ha): 90%; pre-emergence activity against ALOMY ([12]; application rate 1280 g/ha): 90%; post-emergence activity against ECHCG ([14]; application rate 320 g/ha): 90%; post-emergence activity against MATIN [15]: 90%; post-emergence activity against VERPE [17]: 90% |
| O=C1N(Cc2c(F)cc(F)cc2F)CCCC12CCCN(Cc1c(F)cc(F)cc1F)C2=O (racemic) [I-198, 2,8-bis[(2,4,6-trifluorophenyl)methyl]-2,8-diazaspiro[5.5]undecane-1,7-dione] | – | – | – | 90 | – | – | 90 | – | 100 | 100 | 90 | 90 | – | 90 | 100 | pest or weed control at 320 g/ha ([4]; Lolium rigidum, pre-emergence, 504 h, application rate 320 g/ha, read-out: pre-emergence activity against LOLRI): 100%; pest or weed control at 320 g/ha ([2]; Poa annua, pre-emergence, 504 h, application rate 320 g/ha, read-out: pre-emergence activity against POAAN): 100%; pre-emergence activity against AMARE ([8]; application rate 320 g/ha): 90%; pre-emergence activity against ALOMY ([12]; application rate 320 g/ha): 90%; pest or weed control at 1280 g/ha ([14]; Echinochloa crus-galli, post-emergence, 504 h, application rate 1280 g/ha, read-out: post-emergence activity against ECHCG): 90%; post-emergence activity against SETVI [18]: 90%; post-emergence activity against AMARE [19]: 90% |
| Cc1ccccc1CN1CCC2(CCCN(Cc3c(F)cccc3F)C2=O)C1=O (racemic) [I-058] | 100 | 100 | 90 | 90 | 90 | – | 90 | – | – | – | 90 | – | 90 | 90 | 90 | post-emergence activity against ECHCG ([14]; application rate 1280 g/ha): 90% |
| O=C1N(Cc2ccsc2)CCCC12CCCN(Cc1ccsc1)C2=O (racemic) [I-046] | 100 | – | 90 | – | 90 | 90 | – | 90 | – | – | 100 | – | – | – | – | pre-emergence activity against POAAN ([2]; application rate 1280 g/ha): 100% |
